Measured values as given in ChEMBL document CHEMBL1671777, “X-ray crystal structure and binding mode analysis of human S-adenosylhomocysteine hydrolase complexed with novel mechanism-based inhibitors, haloneplanocin A analogues” (J Med Chem, 2011).

Target: Adenosylhomocysteinase (Homo sapiens, UniProt P23526)
Test: Inhibition of human placental AdoHcy hydrolase expressed in Escherichia coli JM109

Chain of Adenosylhomocysteinase (P23526 whole entry): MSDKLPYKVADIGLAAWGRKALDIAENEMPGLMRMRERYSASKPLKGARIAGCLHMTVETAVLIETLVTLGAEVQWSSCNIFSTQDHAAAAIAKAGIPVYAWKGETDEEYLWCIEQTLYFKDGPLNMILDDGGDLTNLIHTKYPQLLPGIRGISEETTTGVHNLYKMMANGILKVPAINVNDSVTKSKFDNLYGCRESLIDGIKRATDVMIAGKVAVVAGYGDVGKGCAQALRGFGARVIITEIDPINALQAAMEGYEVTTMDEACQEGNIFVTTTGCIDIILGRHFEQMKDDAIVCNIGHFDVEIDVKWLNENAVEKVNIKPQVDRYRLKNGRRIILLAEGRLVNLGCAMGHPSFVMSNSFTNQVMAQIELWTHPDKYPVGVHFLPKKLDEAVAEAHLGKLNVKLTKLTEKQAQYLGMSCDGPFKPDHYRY

| SMILES | IC50 [µM] |
| --- | --- |
| Nc1ncnc2c1ncn2[C@@H]1C(Cl)=C[C@@H](O)[C@H]1O | > 1000 |
| Nc1ncnc2c1ncn2[C@@H]1C(Br)=C[C@@H](O)[C@H]1O | > 1000 |
| Nc1ncnc2c1ncn2[C@@H]1C=C(CO)[C@@H](O)[C@H]1O [NEOPLANOCIN A] | 0.87 |
| Nc1ncnc2c1ncn2[C@@H]1C(Br)=C(CO)[C@@H](O)[C@H]1O | 60.2 |
| Nc1ncnc2c1ncn2[C@@H]1C(I)=C(CO)[C@@H](O)[C@H]1O | > 1000 |
| Nc1ncnc2c1ncn2[C@@H]1C(Cl)=C(CO)[C@@H](O)[C@H]1O | 36.5 |
| Nc1ncnc2c1ncn2[C@@H]1C=C[C@@H](O)[C@H]1O | 5.83 |
| Nc1ncnc2c1ncn2[C@@H]1C(F)=C[C@@H](O)[C@H]1O | 7.67 |
| Nc1ncnc2c1ncn2[C@@H]1C(I)=C[C@@H](O)[C@H]1O | > 1000 |
